Data on one sequence can be found in patent publication US20030109444A1, “Bone anti-resorptive compounds” (priority 2001, published 2003).

In this assay the test system is osteoclast precursors (bone marrow macrophages). The experiment in a line: Osteoclast differentiation of bone marrow macrophage cultures monitored by TRAP activity. Type of assay: cell-based. The note with it: cell cultures of osteoclast precursors (mouse BMMs) with M-CSF, increasing concentrations of peptide, FIG. 1. The procedure: The effect of a partial AA″ loop polypeptide of RANKL on TRAP activity. Wild type C3H/HENJ mice were purchased from Harlan Industries (Indianapolis, Ind.). In order to establish a cell culture of osteoclast precursors, bone marrow macrophages (BMMs) were isolated from whole bone marrow of four to six week old mice and incubated in tissue culture dishes at 37° C. in 5% CO2. After 24 hours in culture, the non-adherent cells were collected and layered on a Ficoll Hypaque gradient and the cells at the gradient interface were collected. Cells were replated at 65,000/cm^2 in α-minimal essential medium, supplemented with 10% heat inactivated fetal bovine serum, at 37° C. in 5% CO2 in the presence of recombinant mouse M-CSF (10 ng.ml). The cell cultures were then treated either with the increasing concentrations of polypeptide of SEQ ID NO 1 (subset of AA″ loop) or with a negative control scrambled peptide having the same molecular weight as the test compound. […] This phosphatase is an osteoclast specific enzyme and its activity corresponds with osteoclast differentiation. TRAP activity is measured by quantitating its ability to cleave a substrate in a color-producing reaction.

“Also recorded” adds a separate entry of the source.

Take PSGSHKVTLSS [SEQ ID NO 1]: the TRAP activity result is “decreases TRAP activity”. Further, the “inhibition of RANKL-induced osteoclast differentiation as monitored by TRAP” value (listed as test compound) was “competitively inhibits the ability of RANKL to induce osteoclast differentiation; also recorded: dose-dependent”.
